Laboratory results taken from patent US20160228380A1, “IMPREGNANATION OF OXYGEN CARRIER COMPOUNDS INTO CARRIER MATERIALS PROVIDING COMPOSITIONS AND METHODS FOR THE TREATMENT OF WOUNDS AND BURNS” (VIRGINIA COMMONWEALTH UNIVERSITY, priority 2013, published 2016).

Assay: TGA of PFD weight loss from coated aerogel, uncoated aerogel and pure PFD
Type: physicochemical
Conditions: held at 37° C. for 60 minutes, aerogel-free basis

loss of available PFD: 100%
Structure (SMILES): FC1(F)C(F)(F)C(F)(F)C2(F)C(F)(F)C(F)(F)C(F)(F)C(F)(F)C2(F)C1(F)F (stereo not shown) [pure PFD, perfluorodecalin]
